Counter-ions that a name gives are not always drawn. Like-named read-outs stand apart in the source and are kept apart here.
What was measured:
AgOAR45A = AgOAR45A (Anopheles gambiae, UniProt Q7PRZ8, DEL426-427); test: cell-based
AgOAR45B [1] = target: T1, AgOAR45B (Anopheles gambiae, UniProt F5HJT6); assay type: cell-based; conditions: for IC50: read-out: IC 50 (antagonist), in the presence of 1 μM octopamine
Protocol: GloResponse™CRE-luc2P HEK293 reporter cell line (Promega) were maintained as adherent culture at 37°C, 5% CO2 in DMEM (Invitrogen) supplemented with 10% fetal calf serum (Atlanta), and […] hygromycin B. Transfection of cells was carried out using the Amaxa Nucleofector kit per the manufacturer’s instructions. […] Stable lines were created by applying […] G418 for three weeks. Stable clones of AgOAR45B expressing HEK293 reporter cells were created through two rounds of limiting dilution cloning.
Intracellular cAMP increase was monitored through a CRE-luc reporter construct in HEK293 cells (Promega). Stable cell lines were plated at a density of 4×10^4 cells per well in white 96-well assay plates (Corning, Cat. #3917). Cells were immediately treated with the various compounds, and returned to the incubator for four hours before being assayed. cAMP was quantified through luciferase production using the Dual-Glo luciferase assay kit (Promega) following the manufacturer’s instructions. Luciferase units were normalized to the cell number using the internal Rluc construct in the pF9A expression plasmid.

AgOAR45B [2] = target: T1, AgOAR45B; test: 3H-Yohimbine competition radioligand binding assay on membranes; conditions: competition with 16 nM 3H-Yohimbine
Protocol: Cells in T75 flasks were washed with 10 ml of PBS, removed by scraping, centrifuged at 500 g, and then resuspended in 5 ml of lysis buffer, 50 mM Tris-Cl pH 7.4. Cells were incubated on ice for 10 min and homogenized with a Dounce homogenizer with 30 strokes. The homogenate and 5 ml wash with lysis buffer were then centrifuged at 23,000 g for 30 min at 4°C to pellet crude membranes. The resulting pellet was re-suspended in 50 mM Tris-Cl pH 7.4, 5 mM MgCl2, 0.5 mM EDTA pH 7.4 and quantified by micro BCA assay (Thermo).
Radioligand binding assays were carried out using ^3H-Yohimbine to determine binding affinity of the octopamine receptor with different compounds. Isolated membranes, 30 μg per well, were incubated in the presence of 16 nM ^3H-Yohimbine (American Radiolabeled Chemicals) in binding buffer, and various concentrations of compounds. The final reaction volume was […] per well in a 96-well assay plate. […] clonidine was used to determine non-specific binding in each experiment. After a two-hour incubation, membranes were collected and washed on filter mats, pretreated with 0.3% polyethylenimine (Sigma) using a Brandel 96-well harvester and counted in a Perkin Elmer Microbeta counter.

[3] = read-out: EC 50 (agonist), AgOAR45B, HEK293-CRE-Luc cells

Chain of AgOAR45A (Q7PRZ8 entry or part of it DEL426-427): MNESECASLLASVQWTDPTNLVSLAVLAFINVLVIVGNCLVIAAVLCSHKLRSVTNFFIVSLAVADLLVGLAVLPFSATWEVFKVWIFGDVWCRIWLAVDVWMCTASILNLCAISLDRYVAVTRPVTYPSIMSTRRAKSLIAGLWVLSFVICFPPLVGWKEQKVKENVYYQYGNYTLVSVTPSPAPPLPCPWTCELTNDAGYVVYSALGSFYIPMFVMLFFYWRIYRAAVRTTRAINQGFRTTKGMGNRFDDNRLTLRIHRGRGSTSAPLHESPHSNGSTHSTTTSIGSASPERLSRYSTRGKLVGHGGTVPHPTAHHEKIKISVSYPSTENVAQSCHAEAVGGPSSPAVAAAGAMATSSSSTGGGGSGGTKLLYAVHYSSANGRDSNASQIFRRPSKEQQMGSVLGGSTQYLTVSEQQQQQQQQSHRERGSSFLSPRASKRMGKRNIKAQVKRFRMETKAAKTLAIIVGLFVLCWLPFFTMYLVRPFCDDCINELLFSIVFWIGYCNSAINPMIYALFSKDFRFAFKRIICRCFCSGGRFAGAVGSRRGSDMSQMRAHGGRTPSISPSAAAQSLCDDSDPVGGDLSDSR
T1 sequence (F5HJT6 entry or part of it): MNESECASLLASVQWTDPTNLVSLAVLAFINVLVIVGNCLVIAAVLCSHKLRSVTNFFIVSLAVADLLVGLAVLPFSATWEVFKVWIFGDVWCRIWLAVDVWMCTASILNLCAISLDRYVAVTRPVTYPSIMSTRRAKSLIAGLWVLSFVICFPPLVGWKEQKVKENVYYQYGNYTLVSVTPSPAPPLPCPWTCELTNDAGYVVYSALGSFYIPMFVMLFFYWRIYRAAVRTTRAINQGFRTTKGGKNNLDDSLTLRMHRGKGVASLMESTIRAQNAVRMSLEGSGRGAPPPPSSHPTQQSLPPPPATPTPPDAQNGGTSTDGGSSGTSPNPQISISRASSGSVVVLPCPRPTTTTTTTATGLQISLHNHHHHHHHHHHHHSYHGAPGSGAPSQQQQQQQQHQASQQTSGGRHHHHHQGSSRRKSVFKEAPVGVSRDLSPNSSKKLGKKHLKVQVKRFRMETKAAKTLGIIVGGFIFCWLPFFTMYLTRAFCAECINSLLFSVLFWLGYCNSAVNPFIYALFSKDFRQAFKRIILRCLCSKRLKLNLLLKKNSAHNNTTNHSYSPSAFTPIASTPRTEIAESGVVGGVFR

SMILES | EC50 (AgOAR45A) | EC50 (AgOAR45B [1]; [3]) | IC50 (AgOAR45B [1]; AgOAR45B) | EC50 (AgOAR45B [1]; Table 2, AgOAR45B reporter assay) | Ki (AgOAR45B [2])
NCCc1c[nH]c2ccc(O)cc12 [Serotonin, serotonin] | > 50000 nM | > 50000 nM |  |  | 
NCCc1ccc(O)c(O)c1 [Dopamine, dopamine] | > 50000 nM | > 50000 nM |  |  | 
c1ccc(CC2=NCCN2)cc1 [Tolazoline, tolazoline] | 280 nM | 5 nM |  |  | 
CCN(CC)CCNC(=O)c1cc(Cl)c(N)cc1OC [Metaclopramide, Metoclopramide hydrochloride] |  |  | > 50000 nM |  | 
NCC(O)c1ccc(O)cc1 (racemic) [Octopamine, DL-octopamine] | 53 nM | 17 nM |  | 17 nM | 7700 nM
Cc1ccc(N(CC2=NCCN2)c2cccc(O)c2)cc1 [Phentolamine, phentolamine] | 10 nM | 5.8 nM |  |  | 
CC(CN1c2ccccc2Sc2ccccc21)N(C)C (stereo not drawn) [Promethazine, promethazine] |  |  | 2000 nM |  | 
c1ccc2c(CC3=NCCN3)cccc2c1 [Naphazoline, naphazoline] | 2.2 nM | 0.23 nM |  |  | 
CN(C)CCCN1c2ccccc2Sc2ccc(Cl)cc21 [Chlorpromazine, chlorpromazine] |  |  | 9900 nM |  | 
Clc1cccc(Cl)c1N=C1NCCN1 [Clonidine, clonidine] | 2 nM | 0.24 nM |  |  | 
NCCc1ccc(O)cc1 [Tyramine, tyramine] | 4600 nM | 840 nM |  |  | 

Reference: PMC4253978, “Characterization of the Anopheles gambiae octopamine receptor and discovery of potential agonists and antagonists using a combined computational-experimental approach” (Malaria Journal, 2014)
